Test results as given in US8802597B2, “Herbicidal pyrimidines” (E I du Pont de Nemours and Company, priority 2003, dated 2014).

Columns and labels:
Test in all cases: Test G pre/postemergence
Type in all cases: in vivo
[1] = system: black mustard (Brassica nigra)
Excerpt: (§1) Seeds or nutlets of plant species selected from bermudagrass (Cynodon dactylon), Surinam grass (Brachiaria decumbens), large crabgrass (Digitaria sanguinalis), green foxtail (Setaria viridis), goosegrass (Eleusine indica), johnsongrass (Sorghum halepense), kochia (Kochia scoparia), pitted morningglory (Ipomoea lacunosa), purple nutsedge (Cyperus rotundus), common ragweed (Ambrosia elatior), black mustard (Brassica nigra), guineagrass (Panicum maximum), dallisgrass (Paspalum dilatatum), barnyardgrass (Echinochloa crus-galli), southern sandbur (Cenchrus echinatus), common sowthistle (Sonchus oleraceous), prickly sida (Sida spinosa), Italian ryegrass (Lolium multiflorum), common purslane (Portulaca oleracea), broadleaf signalgrass (Brachiaria platyphylla), common groundsel (Senecio vulgaris), common chickweed (Stellaria media), tropical spiderwort (Commelina benghalensis), annual bluegrass (Poa annua), downy bromegrass (Bromus tectorum), itchgrass (Rottboellia cochinchinensis), quackgrass (Elytrigia repens), Canada horseweed (Conyza canadensis), field bindweed (Convolvulus arvensis), spanishneedles (Bidens bipinnata), common mallow (Malva sylvestris), and Russian thistle (Salsola kali) were planted and treated preemergence with test chemicals formulated in a non-phytotoxic solvent mixture which included a surfactant.
(§2) At the same time, plants selected from these weed species were treated with postemergence applications of some of the test chemicals formulated in the same manner. Plants ranged in height from 2 to 18 cm (1- to 4-leaf stage) for postemergence treatments. Treated plants and controls were maintained in a greenhouse for 12 to 21 days, after which time all species were compared to controls and visually evaluated.
(§3) Plant response ratings, summarized in Table G, are based on a scale of 0 to 100 where 0 is no effect and 100 is complete control. A dash (-) response means no test result.

[2] = system: dallisgrass (Paspalum dilatatum)
Excerpt: as §1, §2, §3

[3] = system: goosegrass (Eleusine indica)
Excerpt: as §1, §2, §3

[4] = system: tropical spiderwort (Commelina benghalensis)
Excerpt: as §1, §2, §3

[5] = Postemergence, 250 g ai/ha, scale 0 to 100
[6] = Postemergence, 16 g ai/ha, scale 0 to 100
[7] = Postemergence, 31 g ai/ha, scale 0 to 100
[8] = Postemergence, 62 g ai/ha, scale 0 to 100
[9] = Postemergence, 125 g ai/ha, scale 0 to 100
[10] = Preemergence, 16 g ai/ha, scale 0-100
[11] = Preemergence, 31 g ai/ha, scale 0-100
[12] = Preemergence, 62 g ai/ha, scale 0-100
[13] = Preemergence, 125 g ai/ha, scale 0-100
[14] = Preemergence, 250 g ai/ha, scale 0-100
[15] = Postemergence, 8 g ai/ha, scale 0 to 100
[16] = Preemergence, 8 g ai/ha, scale 0-100

| Compound | Plant response rating, Black Mustard [1, 6] | Plant response rating, Black Mustard [1, 7] | Plant response rating, Black Mustard [1, 8] | Plant response rating, Black Mustard [1, 10] | Plant response rating, Black Mustard [1, 11] | Plant response rating, Black Mustard [1, 12] | Plant response rating, Dallisgrass [2, 6] | Plant response rating, Dallisgrass [2, 7] | Plant response rating, Dallisgrass [2, 8] | Plant response rating, Dallisgrass [2, 10] | Plant response rating, Dallisgrass [2, 11] | Plant response rating, Dallisgrass [2, 12] | Plant response rating, Goosegrass [3, 6] | Plant response rating, Goosegrass [3, 7] | Plant response rating, Goosegrass [3, 8] | Plant response rating, Goosegrass [3, 10] | Plant response rating, Goosegrass [3, 11] | Plant response rating, Goosegrass [3, 12] | Plant response rating, Spiderwort [4, 6] | Plant response rating, Spiderwort [4, 7] | also measured |
| --- | --- | --- | --- | --- | --- | --- | --- | --- | --- | --- | --- | --- | --- | --- | --- | --- | --- | --- | --- | --- | --- |
| Nc1nc(C2CC2)nc(C(=O)OCc2ccccc2)c1Br [Compound 22, phenylmethyl 6-amino-5-bromo-2-cyclopropyl-4-pyrimidinecarboxylate] | 50 | 75 | 75 | 30 | 35 | 60 | 0 | 0 | 15 | 0 | 0 | 0 | 5 | 15 | 25 | 0 | 0 | 0 | 15 | 40 | Plant response rating, Black Mustard [1, 5]: 95; Plant response rating, Black Mustard [1, 9]: 95; Plant response rating, Black Mustard [1, 13]: 65; Plant response rating, Black Mustard [1, 14]: 75; Plant response rating, Dallisgrass [2, 5]: 75; Plant response rating, Dallisgrass [2, 9]: 25; Plant response rating, Dallisgrass [2, 13]: 40; Plant response rating, Dallisgrass [2, 14]: 50; Plant response rating, Goosegrass [3, 5]: 50; Plant response rating, Goosegrass [3, 9]: 35; Plant response rating, Goosegrass [3, 13]: 0; Plant response rating, Goosegrass [3, 14]: 0; Plant response rating, Spiderwort [4, 5]: 98; Plant response rating, Spiderwort [4, 8]: 85; Plant response rating, Spiderwort [4, 9]: 95; Plant response rating, Spiderwort [4, 10]: 0; Plant response rating, Spiderwort [4, 11]: 50; Plant response rating, Spiderwort [4, 12]: 95; Plant response rating, Spiderwort [4, 13]: 100; Plant response rating, Spiderwort [4, 14]: 100 |
| CCOC(=O)c1nc(-c2ccc(Cl)cc2)nc(N)c1Cl [Compound 64, ethyl 6-amino-5-chloro-2-(4-chlorophenyl)-4-pyrimidinecarboxylate] | 0 | 0 | 10 | 0 | 20 | 35 | 0 | 0 | 20 | 0 | 0 | 0 | 0 | 0 | 20 | 0 | 0 | 0 | 80 | 80 | Plant response rating, Black Mustard [1, 15]: 0; Plant response rating, Black Mustard [1, 16]: 0; Plant response rating, Dallisgrass [2, 15]: 0; Plant response rating, Dallisgrass [2, 16]: 0; Plant response rating, Goosegrass [3, 15]: 0; Plant response rating, Goosegrass [3, 16]: 0; Plant response rating, Spiderwort [4, 15]: 65; Plant response rating, Spiderwort [4, 8]: 90; Plant response rating, Spiderwort [4, 16]: 0; Plant response rating, Spiderwort [4, 10]: 50; Plant response rating, Spiderwort [4, 11]: 75; Plant response rating, Spiderwort [4, 12]: 90 |
| Nc1nc(C2CC2)nc(C(=O)[O-])c1Cl.[Na+] [Compound 77, 6-amino-5-chloro-2-cyclopropyl-4-pyrimidinecarboxylic acid monosodium salt] | 25 | 40 | 50 | 60 | 60 | 85 | 0 | 0 | 15 | 0 | 5 | 15 | 0 | 15 | 50 | 0 | 5 | 5 | 10 | 50 | Plant response rating, Black Mustard [1, 5]: 60; Plant response rating, Black Mustard [1, 9]: 60; Plant response rating, Black Mustard [1, 13]: 90; Plant response rating, Black Mustard [1, 14]: 95; Plant response rating, Dallisgrass [2, 5]: 50; Plant response rating, Dallisgrass [2, 9]: 35; Plant response rating, Dallisgrass [2, 13]: 30; Plant response rating, Dallisgrass [2, 14]: 85; Plant response rating, Goosegrass [3, 5]: 65; Plant response rating, Goosegrass [3, 9]: 50; Plant response rating, Goosegrass [3, 13]: 25; Plant response rating, Goosegrass [3, 14]: 55; Plant response rating, Spiderwort [4, 5]: 100; Plant response rating, Spiderwort [4, 8]: 75; Plant response rating, Spiderwort [4, 9]: 90; Plant response rating, Spiderwort [4, 10]: 60; Plant response rating, Spiderwort [4, 11]: 85; Plant response rating, Spiderwort [4, 12]: 95; Plant response rating, Spiderwort [4, 13]: 95; Plant response rating, Spiderwort [4, 14]: 100 |
